Where a name gives a salt, the structure may show the parent alone.
What was measured:
[1] = subcutaneous administration; had been reported; cited from earlier work
C6 cells [2] = assay: Rate of dead cells in PDT-treated or anti-cancer agent-treated C6 cells (Annexin V/PI), Example 2; assay type: cell-based, rat; conditions: C6 cells cultured 48 hours with MTX 20 μg/mL, DOX 75 μg/mL or EPI 62.5 μg/mL
Protocol: C6 cells were cultured in 2.5% FBS/F-12K medium supplemented with 5-ALA to a final concentration of 1 mM in a 5% CO2 incubator at 37° C. for 24 hours. After the culture, the cells were removed with 0.25% trypsin-EDTA solution, and the collected cells were adjusted to 2×10^7 cells/mL with PBS. The cell suspension thus prepared was injected into a Tygon tube (inner diameter: 0.79 mm), wrapped around a light irradiator (Otsuka Electronics Co., Ltd.), and irradiated with light having a wavelength of 630 nm and an irradiation energy density of 7.5 J/cm^2 (illuminance of 124.5 mW/cm^2 for 1 minute). The treated cells were pooled and the irradiation was repeated until the required dose was obtained. The irradiated cells were divided into three equal parts, and one was administered to F344 rats (8 week-old at the start of study, male, Charles River Laboratories Japan Inc.) at 0.5 mL (1×10^7 cells) per animal from the tail vein under isoflurane anesthesia (PDT iv group, 3 animals). Another one was centrifuged to remove its culture supernatant and adjusted to 2×10^7 cells/mL with PBS, and the cell suspension thus prepared was administered at 0.5 mL (1×10^7 cells) per animal from the tail vein in the same manner as the PDT iv group (PDT-cell iv group, 3 animals). The cells of the remaining one of the three equal parts were suspended in 2.5% FBS/F-12K medium and cultured in a 5% CO2 incubator at 37° C. for 24 hours, and then collected and adjusted to 2×10^7 cells/mL with PBS, and the cell suspension thus prepared was administered at 0.5 mL (1×10^7 cells) per animal from the tail vein in the same manner as other groups (PDT/24 h-cell iv group, 3 animals). Intravenous administration of these PDT-treated cells was performed a total of 3 times (Day−15, −8, −1). […]
The PDT-treated or anti-cancer agent-treated C6 cells were stained with FITC-labeled Annexin V and PI by using the FITC Annexin V Apoptosis Detection Kit I. After that, the rate of dead cells was analyzed with a flow cytometer.

C6 cells [3] = assay: Tumor volume after subcutaneous transplantation of C6 cells in rats given PDT-treated or anti-cancer agent-treated cells intravenously, Example 2; assay type: in vivo, rat; conditions: intravenous administration of treated C6 cells to rats
Protocol: C6 cells were cultured in 2.5% FBS/F-12K medium supplemented with 5-ALA to a final concentration of 1 mM in a 5% CO2 incubator at 37° C. for 24 hours. After the culture, the cells were removed with 0.25% trypsin-EDTA solution, and the collected cells were adjusted to 2×10^7 cells/mL with PBS. The cell suspension thus prepared was injected into a Tygon tube (inner diameter: 0.79 mm), wrapped around a light irradiator (Otsuka Electronics Co., Ltd.), and irradiated with light having a wavelength of 630 nm and an irradiation energy density of 7.5 J/cm^2 (illuminance of 124.5 mW/cm^2 for 1 minute). The treated cells were pooled and the irradiation was repeated until the required dose was obtained. The irradiated cells were divided into three equal parts, and one was administered to F344 rats (8 week-old at the start of study, male, Charles River Laboratories Japan Inc.) at 0.5 mL (1×10^7 cells) per animal from the tail vein under isoflurane anesthesia (PDT iv group, 3 animals). […]
On the 4th, 6th, 8th and 10th days after preparation of the cancer-bearing rats (Day 4, 6, 8, 10), the major axis and the minor axis of the tumor were measured by using a caliper, and the tumor volume was calculated according to the following formula. […]

In the case of COc1cccc2c1C(=O)c1c(O)c3c(c(O)c1C2=O)C[C@@](O)(C(=O)CO)C[C@@H]3O[C@H]1C[C@H](N)[C@H](O)[C@H](C)O1 [DOX, doxorubicin hydrochloride], the immunostimulatory effects [1] is given as “immunostimulatory effects”, the “living cells (Annexin V−/PI−)” value (C6 cells [2]) is given as 5% and the antitumor immunity (C6 cells [3]) is given as “not induced”.
In the case of COc1cccc2c1C(=O)c1c(O)c3c(c(O)c1C2=O)C[C@@](O)(C(=O)CO)C[C@@H]3O[C@H]1C[C@H](N)[C@@H](O)[C@H](C)O1 [EPI, epirubicin hydrochloride], the “living cells (Annexin V−/PI−)” value (C6 cells [2]) was 5%.
For O=C1c2c(O)ccc(O)c2C(=O)c2c(NCCNCCO)ccc(NCCNCCO)c21 [MTX, mitoxantrone dihydrochloride], the “living cells (Annexin V−/PI−)” value (C6 cells [2]) was 1%.
